Reference: patent publication US20250154531A1, “METHODS FOR IMPROVED HOMOLOGOUS RECOMBINATION AND COMPOSITIONS THEREOF” (LIFE TECHNOLOGIES CORPORATION, priority 2017, published 2025)

Tests used:
β-actin in NK-92 = test: One-step knock-in of OFP with NHEJ inhibitor in NK-92 cells; format: cell-based; details: NK-92, in media for two days after transfection
Description: (§1) Various cell types (NK-92, THP-1, Jurkat) were transfected with 1 μg TRUECUT™ Cas9 Protein v2 and 250 ng of β-actin gRNA, and 0.25 μg, 0.5 μg, or 1 μg OFP-Puro in electroporation buffer. Electroporation was performed using the NEON® Transfection System. After electroporation, the cells were cultured in media containing NHEJ inhibitor (Ku0060648) for two days, then analyzed via FACS analysis for SSC-A and OFP.

β-actin in THP-1 = test: One-step knock-in of OFP with NHEJ inhibitor in THP-1 cells; format: cell-based; details: THP-1, in media for two days after transfection
Description: as §1

β-actin = test: One-step knock-in with two Cas9/gRNA complexes in primary T cells, knock-in efficiency; format: cell-based, human; details: in media for two days after electroporation
Description: (§2) Human primary T cells were isolated and activated as in Example 10. On the third day after activation, cells were transfected with 1 μg TRUECUT™ Cas9 Protein v2 with 250 ng of β-actin gRNA, 1 μg TRUECUT™ Cas9 Protein v2 with 250 ng of a guide RNA targeting the T cell receptor (TRAC gRNA), and 1 μg OFP-Puro in electroporation buffer. Electroporation was performed using the NEON® Transfection System, program 24. After electroporation, the cells were cultured in media containing NHEJ inhibitor (Ku0060648) for two days, then analyzed via FACS analysis for SSC-A and OFP.

β-actin in Jurkat = test: One-step knock-in of OFP with NHEJ inhibitor in Jurkat cells; format: cell-based; details: in media for two days after transfection
Description: as §1

[1] = tested on: T cell receptor (TRAC gRNA); test: One-step knock-in with two Cas9/gRNA complexes in primary T cells, knock-out efficiency; format: cell-based, human; details: in media for two days after electroporation
Description: as §2

[2] = tested on: genomic locus of beta-actin; test: Insertion of puromycin-P2A-OFP into beta-actin locus in human primary T cells, OFP-positive cells by flow cytometry; format: cell-based; details: 30 μM in culture medium after electroporation, 48 hours
Description: Human peripheral blood mononuclear cells (PBMCs) were isolated from peripheral blood using Ficoll-Paque PLUS density gradient according to manufacturer's instructions. The human primary T cells were then isolated using DYNABEADS™ UNTOUCHED™ Human T Cells Kit and expanded using OPTMIZER™ CTS™ T-Cell Expansion SFM supplemented with 200 IU/mL of IL-2. The activation and expansion of human T cells were carried out using DYNABEADS™ Human T-Expander CD3/CD28 kit. On day 3 of activation, T cells were harvested for transfection.
For transfection of primary T cells, 1×10^5 cells were used per NEON® electroporation with voltage set at 1700V, pulse width set at 20 ms, and the number of pulses set at 1, respectively. To evaluate the effects of chemical modification on HDR efficiency, phosphorothioate or amine-modified nucleotides were added at specific positions of the oligonucleotides during chemical synthesis. The resulting modified oligonucleotides were then used to amplify the donor DNA. […] Cells were analyzed at 48 hours post transfection.
Linear ds- or ss-DNA donor could be degraded in vivo by exonucleases. […] At 48 hours post transfection, the percentages of OFP-positive cells were determined by flow cytometric analysis. […]
The disruption of NHEJ repair pathway is known to improve HDR efficiency. […] At 48 hours post transfection, we analyzed the cells by flow cytometry.

Compound	knock-in efficiency (β-actin in NK-92)	knock-in efficiency (β-actin in THP-1)	knock-in efficiency (Q3) (β-actin)	knock-in efficiency (β-actin in Jurkat)	knock-out efficiency (Q3 and Q4) [1]	increase of the percentage of OFP-positive cells ([2]; amine-modified donor DNA)	increase of the percentage of OFP-positive cells ([2]; unmodified donor DNA)
CCN1CCN(CC(=O)Nc2ccc(-c3cccc4c(=O)cc(N5CCOCC5)oc34)c3sc4ccccc4c23)CC1 [Ku-0060648, 4-Ethyl-N-[4-[2-(4-morpholinyl)-4-oxo-4H-1-benzopyran-8-yl]-1-dibenzothienyl]-1-piperazineacetamide]	increased knock-in efficiency	increased knock-in efficiency	increased knock-in efficiency	increased knock-in efficiency	without affecting knock-out efficiency	–	–
O=c1cc(N2CCOCC2)oc2c1ccc1ccccc12 [Nu7026, 2-(4-Morpholinyl)-4H-naphthol[1,2-b]pyran-4-one]	–	–	–	–	–	~2 fold	approximately 5 fold
